These are literature values, as cited in patent US20030225048A1, “Sulfatase inhibiting continuous progestogen contraceptive regimens” (priority 2002, published 2003).

For this series the following is noted: humans; norelgestromin is the major metabolite.

For the compound `C#C[C@]1(OC(C)=O)CC[C@H]2[C@@H]3CCC4=CC(=NO)CC[C@@H]4[C@H]3CC[C@@]21CC` (mixture of isomers) [norgestimate], the “norgestimate converted to norelgestromin in vivo” value is on record as no less than 80%.
